Test results from publication PMC9274755, “KDM4 inhibitor SD49-7 attenuates leukemia stem cell via KDM4A/MDM2/p21^CIP1 axis” (Theranostics, 2022).

How the values were obtained:
KDM4C = biological target: T1, KDM4C (Homo sapiens, UniProt Q9H3R0); experiment: SPR (Biacore T200), protein immobilized on CM5 chip; assay type: binding
T1 sequence (Q9H3R0 1-1056): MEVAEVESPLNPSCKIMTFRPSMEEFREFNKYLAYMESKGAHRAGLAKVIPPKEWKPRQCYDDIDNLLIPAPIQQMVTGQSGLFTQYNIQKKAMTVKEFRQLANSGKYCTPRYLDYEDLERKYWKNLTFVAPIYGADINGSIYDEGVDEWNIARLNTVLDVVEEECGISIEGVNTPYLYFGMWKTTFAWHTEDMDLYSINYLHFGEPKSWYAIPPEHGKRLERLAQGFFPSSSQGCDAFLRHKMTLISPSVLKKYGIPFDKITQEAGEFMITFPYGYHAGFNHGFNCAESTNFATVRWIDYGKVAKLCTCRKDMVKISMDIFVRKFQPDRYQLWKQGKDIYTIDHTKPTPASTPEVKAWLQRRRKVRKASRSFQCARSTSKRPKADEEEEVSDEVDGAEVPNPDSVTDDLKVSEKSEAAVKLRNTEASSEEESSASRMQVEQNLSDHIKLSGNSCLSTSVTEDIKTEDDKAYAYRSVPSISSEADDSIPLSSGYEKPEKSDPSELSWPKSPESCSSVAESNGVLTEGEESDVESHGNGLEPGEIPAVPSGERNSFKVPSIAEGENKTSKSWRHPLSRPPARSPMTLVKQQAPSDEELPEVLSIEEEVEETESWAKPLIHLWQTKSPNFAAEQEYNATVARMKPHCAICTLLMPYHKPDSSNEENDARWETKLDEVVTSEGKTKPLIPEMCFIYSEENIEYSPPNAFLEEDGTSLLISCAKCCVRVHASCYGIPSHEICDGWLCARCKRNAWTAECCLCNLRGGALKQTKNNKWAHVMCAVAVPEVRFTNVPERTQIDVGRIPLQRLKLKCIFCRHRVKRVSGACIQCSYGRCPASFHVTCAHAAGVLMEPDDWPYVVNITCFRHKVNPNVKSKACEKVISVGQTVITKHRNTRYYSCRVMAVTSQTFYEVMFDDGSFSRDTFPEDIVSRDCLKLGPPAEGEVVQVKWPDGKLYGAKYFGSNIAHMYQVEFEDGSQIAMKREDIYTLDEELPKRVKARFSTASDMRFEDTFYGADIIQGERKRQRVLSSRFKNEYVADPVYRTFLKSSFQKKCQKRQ

KDM4A = biological target: T2, KDM4A (Homo sapiens, UniProt O75164); experiment: as above; assay type: binding
T2 sequence (O75164 2-1064): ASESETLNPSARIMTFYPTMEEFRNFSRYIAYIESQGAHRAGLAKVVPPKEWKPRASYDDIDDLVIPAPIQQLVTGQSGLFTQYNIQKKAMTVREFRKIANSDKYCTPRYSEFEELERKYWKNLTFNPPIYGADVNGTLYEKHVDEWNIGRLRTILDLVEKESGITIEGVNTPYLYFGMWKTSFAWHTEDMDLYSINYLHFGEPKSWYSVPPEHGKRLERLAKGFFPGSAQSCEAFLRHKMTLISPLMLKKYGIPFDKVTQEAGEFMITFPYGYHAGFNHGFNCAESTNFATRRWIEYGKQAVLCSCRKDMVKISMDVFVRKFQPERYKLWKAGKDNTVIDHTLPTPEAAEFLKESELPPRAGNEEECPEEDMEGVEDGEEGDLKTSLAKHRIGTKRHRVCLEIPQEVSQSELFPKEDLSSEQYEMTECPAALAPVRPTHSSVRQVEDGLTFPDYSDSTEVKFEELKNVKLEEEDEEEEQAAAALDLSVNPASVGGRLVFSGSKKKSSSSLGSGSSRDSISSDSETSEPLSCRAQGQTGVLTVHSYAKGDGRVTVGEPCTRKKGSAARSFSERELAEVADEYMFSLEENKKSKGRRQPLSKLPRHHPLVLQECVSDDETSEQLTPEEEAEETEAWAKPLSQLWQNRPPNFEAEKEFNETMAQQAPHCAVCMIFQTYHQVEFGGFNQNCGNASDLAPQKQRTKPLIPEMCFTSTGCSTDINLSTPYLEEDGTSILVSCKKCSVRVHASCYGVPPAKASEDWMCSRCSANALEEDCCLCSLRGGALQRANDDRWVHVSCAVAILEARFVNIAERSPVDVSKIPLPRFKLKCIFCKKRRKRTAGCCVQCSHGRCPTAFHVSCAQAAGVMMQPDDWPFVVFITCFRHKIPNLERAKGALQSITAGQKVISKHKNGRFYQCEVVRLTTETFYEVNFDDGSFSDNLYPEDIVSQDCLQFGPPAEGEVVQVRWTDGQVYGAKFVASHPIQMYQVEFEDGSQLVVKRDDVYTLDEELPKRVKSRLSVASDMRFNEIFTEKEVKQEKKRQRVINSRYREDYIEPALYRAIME

Work on `O=C(N/N=C/c1c(O)ccc2ccccc12)c1ccccc1O` [SD49-7] yielded a Kd (KDM4C) of 1060 nM and a Kd (KDM4A) of 988 nM.
For `CC(C)C(=O)NC(c1ccco1)c1ccc2cccnc2c1O` (stereo not shown) [SD70], the Kd (KDM4C) was 2590 nM and the Kd (KDM4A) was 18000 nM.
